Where “and” joins values, the source holds several entries; their conditions need not be identical. Identical values can stand only once.
Assays:
NDM-HK (NDM-1^+) = test: microbe, parasite or virus in culture; assay type: cell-based, E. coli; conditions: for MBC of Bi(III) compound/inhibitor alone / MBC of MER in combination with compound at 32 µg mL^-1 / MIC of Bi(III) compound/inhibitor alone / MIC of MER in combination with compound at 32 µg mL^-1 / FICI: NDM-HK; for FICI: MER + compound, 256 µg mL^-1 set as MIC of Bi(III), 128 for Bi(NAC)3
Experimental: (§1) MIC values were determined by standard broth micro-dilution method (Clinical and Laboratory Standards Institute (CLSI) M100-S20, 2010)[64]. Briefly, bacterial cells were cultured in LB broth overnight at 37 °C at 250 rpm and the OD was measured at 600 nm (OD600). The bacterial density was adjusted to about 1 × 10^6 CFU mL^−1 and checked by CFU counting on agar plates afterwards. Tested antibiotics or Bi(III) compounds were added triplicately into individual wells of flat-bottomed 96-well plates and performed 2-fold serial dilution, followed by addition of prepared bacterial inocula. The plate was then incubated at 37 °C for overnight. […] The MIC was determined as the lowest concentration of a drug that could inhibit the growth of microorganism by both visual reading and OD reading at 600 nm using a microtiter plate reader.
(§2) Resulting growth (or lack of growth) was examined after overnight culturing and the lowest concentration that inhibits 99.9% of the original culture was taken as MBC.
(§3) Other procedures were kept strictly the same. […] Synergism was defined when FICI ≤ 0.5, indifference was defined when FICI > 0.5 and < 4, and antagonism was defined when FICI≥4[65]. […] All of the determinations were performed at least in triplicate on different days.

NDM-1 [1] = target: T1, NDM-1 (Klebsiella pneumoniae, UniProt C7C422); assay type: cell-based; set-up: endogenous in cells; host or cells: E. coli clinical isolate NDM-HK; conditions: NDM-HK cultured with 100 µM compound; control 50.1 °C
Experimental: The cellular thermal shift assay was performed according to a standard method. Clinical isolate of NDM-1-positive E. coli (NDM-HK) was cultured overnight in the absence or presence of 100 µM Bi(III) compounds, i.e., CBS, Bi(NAC)3, Bi(NIT)3. The bacterial pellets were harvested and washed with PBS for 4 times. The cell suspensions were aliquoted into PCR tubes and heat treatment was performed at the designated temperature ranging from 40 °C to 70 °C for 3 min in a 96-well thermal cycler. The tubes were cooled immediately at room temperature for another 3 min after heating and the heating procedures were repeated for three cycles. For the cell lysis, the samples were frozen–thawed for two cycles in liquid nitrogen and thermal cycler set at 25 °C. The samples were vortexed gently after each cycle and were centrifuged at 20,000 × g to obtain the supernatant when the second cycle was finished. All the samples were subjected to western blot analysis for detection and quantification of NDM-1 content as described above.
Target sequence in this assay (C7C422 29-270 limits assumed): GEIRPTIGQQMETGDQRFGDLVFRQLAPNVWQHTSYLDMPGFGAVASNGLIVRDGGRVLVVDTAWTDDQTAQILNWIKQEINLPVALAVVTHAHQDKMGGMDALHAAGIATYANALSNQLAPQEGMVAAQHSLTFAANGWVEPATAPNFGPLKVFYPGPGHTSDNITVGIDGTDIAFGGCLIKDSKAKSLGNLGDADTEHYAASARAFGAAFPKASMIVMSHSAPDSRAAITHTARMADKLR

[2] = tested on: NDM-K. pneumonia (NDM-1^+); test: Microdilution MIC/MBC and checkerboard assay; assay type: cell-based, Klebsiella pneumonia; conditions: for MBC of MER in combination with compound at 32 µg mL^-1 / MIC of MER in combination with compound at 32 µg mL^-1: NDM-K. pneumonia (NDM-KP)
Experimental: as §1, §2, §3

IMP-4 = test: IC50 enzyme inhibition assay; assay type: biochemical; conditions: IMP-4 50 nM, 1 h preincubation, MER substrate
Experimental: (§4) Freshly prepared 50 nM of Zn2-NDM-1, Zn2-VIM-2, or Zn2-IMP-4 in 50 mM HEPES/Na pH 7.0, 100 mM NaCl were first incubated with various concentrations of CBS for 1 h at 25 °C, then mixed with equal volume of 0.2 mM MER. The assay was performed in a 1 cm quartz cuvette using the kinetic mode on a Varian Cary50 UV-visible spectrophotometer at 25 °C. The decrease in absorbance at 300 nm due to ring-opening of MER was monitored every second for a duration of 10 min until the reaction was completed. The initial rates were extracted and calculated from each reaction curves for fitting IC50 curves.

NDM-1 [3] = target: T1, NDM-1; assay type: biochemical; conditions: NDM-1 50 nM, 1 h preincubation, MER substrate
Experimental: as §4
Target sequence in this assay (C7C422 29-270, looked up, species assumed): as the sequence (C7C422 29-270 limits assumed) above

VIM-2 = VIM-2 (Escherichia coli, UniProt Q5U7L7); assay type: biochemical; conditions: VIM-2 50 nM, 1 h preincubation, MER substrate
Experimental: as §4

VIM-BL21 (VIM-2^+) = test: microbe, parasite or virus in culture; assay type: cell-based, E. coli; conditions: VIM-BL21; for FICI: MER + compound, 256 µg mL^-1 set as MIC of Bi(III)
Experimental: as §1, §2, §3

IMP-BL21 (IMP-4^+) = test: microbe, parasite or virus in culture; assay type: cell-based, E. coli; conditions: IMP-BL21
Experimental: as §1, §2, §3

[4] = tested on: NDM-C. freundii (NDM-1^+); test: Microdilution MIC/MBC and checkerboard assay; assay type: cell-based, Citrobacter freundii; conditions: for MBC of MER in combination with compound at 32 µg mL^-1 / MIC of MER in combination with compound at 32 µg mL^-1: NDM-C. freundii (NDM-CF)
Experimental: as §1, §2, §3

NDM-HK = conditions: for growth inhibition based on optical density (OD) reading: metal compound 10, 50, 200 µM with MER at ½MIC (8 μg mL^−1), 24 h
Experimental: Metal salts used for the screening involved bismuth nitrate (Bi(III)), gallium nitrate (Ga(III)), sodium stibogluconate (Sb(V)), chromium chloride (Cr(III)), cobalt chloride (Co(II)), nickel chloride (Ni(II)), ruthenium chloride (Ru(II)), and copper sulfate (Cu(II)). Briefly, different concentrations (10, 50, and 200 μM) of metal compounds were added to LB medium containing 8 μg mL^−1 of MER in 96-well plates. About 2 × 10^6 CFU mL^−1 logarithmic cultures of NDM-HK were added to each well of the plates and co-incubated for overnight. The growth inhibition of bacteria was monitored by OD reading at 600 nm and serial dilution in LB agar plate. Wells with no antibiotics or metal compounds served as growth controls, and wells with no bacteria added served as background controls. Each test was performed in triplicate. The inhibition was calculated as [1−(ODsample−ODbackground)/(ODcontrol−ODbackground)] ×100%. CFU was counting by 10-fold serial dilution in PBS and 10 μL was spotted in LB agar plate.

NDM-1 [5] = target: T1, NDM-1; assay type: biochemical; conditions: MER substrate 10 to 150 µM
Target sequence in this assay (C7C422 29-270, looked up, species assumed): as the sequence (C7C422 29-270 limits assumed) above
Experimental: NDM-1 (50 nM) was incubated with Bi(NIT)3 (0.5, 1.0, and 1.5 µM) for 1 h at 25 °C with gentle shaking. The assay was performed in a 96-well microplate reader at 298 K. The final assay buffer contains 50 mM HEPES at pH 7.0, 100 mM NaCl, with MER as the substrate ranging from 10 to 150 µM. Control experiment was also performed in the absence of inhibitors under the same conditions. The Km and Vmax for both the uninhibited and inhibited reactions were obtained by fitting the data into the double reciprocal Lineweaver–Burk plots.

Row | SMILES | MBC of Bi(III) compound/inhibitor alone (NDM-HK (NDM-1^+)) [µg/mL] | MBC of MER in combination with compound at 32 µg mL^-1 (NDM-HK (NDM-1^+)) [µg/mL] | MIC of Bi(III) compound/inhibitor alone (NDM-HK (NDM-1^+)) | MIC of MER in combination with compound at 32 µg mL^-1 (NDM-HK (NDM-1^+)) [µg/mL] | FICI (NDM-HK (NDM-1^+)) | MBC of MER in combination with compound at 32 µg mL^-1 (VIM-BL21 (VIM-2^+)) [µg/mL] | MIC of MER in combination with compound at 32 µg mL^-1 (VIM-BL21 (VIM-2^+)) [µg/mL] | FICI (VIM-BL21 (VIM-2^+)) | further results
1 | O=C([O-])CN(CCN(CC(=O)[O-])CC(=O)O)CC(=O)[O-].[Bi+3] [Bi(EDTA)] | > 256 | 0.5 | > 256 µg/mL | 0.5 | 0.094 | – | – | – | –
2 | O=C(O)CN(CCN(CC(=O)O)CC(=O)O)CC(=O)O [EDTA, ethylenediaminetetraacetate] | > 256 | 0.5 | > 256 µg/mL | 0.5 | 0.031 | – | – | – | –
3 | O=[N+]([O-])[O-].O=[N+]([O-])[O-].O=[N+]([O-])[O-].[Bi+3] [Bi(NIT)3, bismuth nitrate] | > 256 | 4 | > 256 µg/mL | 2 | 0.266 | 2 | 1 | 0.063 | NDM-1 melting temperature, treated group (NDM-1 [1]): 48.1 °C; MBC of MER in combination with compound at 32 µg mL^-1 [2]: 1 µg mL^-1 and 1/1 µg mL^-1; MIC of MER in combination with compound at 32 µg mL^-1 [2]: 1 µg mL^-1 and 1/1 µg mL^-1; MBC of Bi(III) compound alone ([2]; NDM-KP): > 256 µg/mL; MIC of Bi(III) compound alone ([2]; NDM-KP): > 256 µg/mL; FICI ([2]; NDM-KP, MER + compound, 256 µg mL^-1 set as MIC of Bi(III)): 0.125; IC50 (IMP-4): 990 ± 190 nM; IC50 (NDM-1 [3]): 700 ± 130 nM; IC50 (VIM-2): 1200 ± 130 nM; MBC of MER in combination with compound at 32 µg mL^-1 (IMP-BL21 (IMP-4^+)): 8 µg/mL; MIC of MER in combination with compound at 32 µg mL^-1 (IMP-BL21 (IMP-4^+)): 4 µg/mL; FICI (IMP-BL21 (IMP-4^+); MER + compound, 256 µg mL^-1 set as MIC of Bi(III)): 0.250; MBC of MER in combination with compound at 32 µg mL^-1 [4]: 4 µg/mL; MIC of MER in combination with compound at 32 µg mL^-1 [4]: 2 µg/mL; MBC of Bi(III) compound alone ([4]; NDM-CF): > 256 µg/mL; MIC of Bi(III) compound alone ([4]; NDM-CF): > 256 µg/mL; FICI ([4]; NDM-CF, MER + compound, 256 µg mL^-1 set as MIC of Bi(III)): 0.375; colony-forming unit (CFU) counting on agar plate after serial dilutions (NDM-HK; MER 8 μg mL-1 + metal compound 10 μM): no colony was observed; growth inhibition based on optical density (OD) reading (NDM-HK): > 90%; inhibition mode (Lineweaver Burk plot) (NDM-1 [5]): either a non-competitive or an irreversible inhibition mode
4 | C[C@H](C[S][Bi+][S]C[C@@H](C)C(=O)N1CCC[C@H]1C(=O)[O-])C(=O)N1CCC[C@H]1C(=O)[O-] [Bi(CPL)2] | > 256 | 0.5 | > 256 µg/mL | 0.5 | 0.125 | 1 | 0.5 | 0.078 | MBC of Bi(III) compound alone (VIM-BL21 (VIM-2^+)): > 256 µg/mL; MIC of Bi(III) compound alone (VIM-BL21 (VIM-2^+)): > 256 µg/mL
5 | CC(=O)N[C@@H](CS)C(=O)O [NAC, N-acetyl-cysteine] | > 256 | 8 | > 256 µg/mL | 8 | 0.750 | – | – | – | –
6 | NC(CCC(=O)NC(C[S][Bi]([S]CC(NC(=O)CCC(N)C(=O)O)C(=O)NCC(=O)O)[S]CC(NC(=O)CCC(N)C(=O)O)C(=O)NCC(=O)O)C(=O)NCC(=O)O)C(=O)O (centres unmarked) [Bi(GSH)3] | > 256 | 4 | > 256 µg/mL | 2 | 0.250 | – | – | – | –
7 | O=[N+]([O-])[O-].O=[N+]([O-])[O-].O=[N+]([O-])[O-].[Ga+3] [gallium nitrate] | – | – | greater than 256 µg mL^-1 | – | – | – | – | – | growth inhibition based on optical density (OD) reading (NDM-HK): > 90%
8 | C[C@H](CS)C(=O)N1CCC[C@@H]1C(=O)O [CPL, D-captopril] | – | 16 | – | 16 | 2.000 | – | – | – | MBC (NDM-HK (NDM-1^+); Escherichia coli, read-out: MBC of Bi(III) compound/inhibitor alone): > 256 µg/mL; MIC (NDM-HK (NDM-1^+); Escherichia coli, read-out: MIC of Bi(III) compound/inhibitor alone): > 256 µg/mL
9 | CNC(=C[N+](=O)[O-])NCCSCc1ccc(CN(C)C)o1.O=C([O-])CC(O)(CC(=O)[O-])C(=O)[O-].[Bi+3] [RBC, ranitidine bismuth citrate] | > 256 | 4 | > 256 µg/mL | 2 | 0.250 | – | – | – | –
10 | CC(C)([S][Bi+][S]C(C)(C)C(N)C(=O)O)C(N)C(=O)O (centres unmarked) [Bi(PCM)2] | > 256 | 2 | > 256 µg/mL | 2 | 0.313 | 2 | 1 | 0.093 | MBC of MER in combination with compound at 32 µg mL^-1 [2]: 8 µg/mL; MIC of MER in combination with compound at 32 µg mL^-1 [2]: 2 µg/mL; IC50 (IMP-4): 1000 ± 370 nM; IC50 (NDM-1 [3]): 2800 ± 110 nM; IC50 (VIM-2): 3710 ± 1190 nM; MBC of Bi(III) compound alone (VIM-BL21 (VIM-2^+)): > 256 µg/mL; MIC of Bi(III) compound alone (VIM-BL21 (VIM-2^+)): > 256 µg/mL; MBC of MER in combination with compound at 32 µg mL^-1 (IMP-BL21 (IMP-4^+)): 2 µg/mL; MIC of MER in combination with compound at 32 µg mL^-1 (IMP-BL21 (IMP-4^+)): 1 µg/mL; MBC of MER in combination with compound at 32 µg mL^-1 [4]: 2/2 µg mL^-1; MIC of MER in combination with compound at 32 µg mL^-1 [4]: 2/2 µg mL^-1

— paper PMC5789847, “Bismuth antimicrobial drugs serve as broad-spectrum metallo-β-lactamase inhibitors” (Nature Communications, 2018)
